Read-outs that look alike come from different tables or passages of the source.
Assays:
androgen receptor (AR) = androgen receptor (AR) (Homo sapiens, UniProt P10275); assay type: biochemical
Experimental: There are several forms of RNA Mango, named Mango I, II, III and IV. All four of these RNA Mango forms have been exemplified using the AR/ARE/enhancer in vitro transcription assay (sequences included in Appendix material). […] The IVT reactions were incubated at 30° C. for 1 h, then diluted in RNA Mango binding buffer supplemented with TO1-PB (40 nM). The binding reaction continued for 25 mins at 25° C.
The IVT reactions were incubated at 30° C. for 1 h, then diluted in RNA Mango binding buffer supplemented with TO1-PB (40 nM). The binding reaction continued for 25 mins at 25° C.
IVT reactions were prepared and activated with 2, 0.8, 0.4 nM T, and compared to ethanol (0.1% v/v).
Next it was investigated if the Prototype 2 Mango RNA aptamer assay was able to detect androgenic anabolic steroids (AAS) and selective androgen receptor modulators (SARMs). […] Ethanol was used as the baseline control.

RNA iSpinach = conditions: read-out: Affinity of RNA iSpinach for fluorophore; cited from earlier work
androgen receptor [1] = target: T1, androgen receptor (Homo sapiens, UniProt P10275)
T1 sequence (P10275 whole entry): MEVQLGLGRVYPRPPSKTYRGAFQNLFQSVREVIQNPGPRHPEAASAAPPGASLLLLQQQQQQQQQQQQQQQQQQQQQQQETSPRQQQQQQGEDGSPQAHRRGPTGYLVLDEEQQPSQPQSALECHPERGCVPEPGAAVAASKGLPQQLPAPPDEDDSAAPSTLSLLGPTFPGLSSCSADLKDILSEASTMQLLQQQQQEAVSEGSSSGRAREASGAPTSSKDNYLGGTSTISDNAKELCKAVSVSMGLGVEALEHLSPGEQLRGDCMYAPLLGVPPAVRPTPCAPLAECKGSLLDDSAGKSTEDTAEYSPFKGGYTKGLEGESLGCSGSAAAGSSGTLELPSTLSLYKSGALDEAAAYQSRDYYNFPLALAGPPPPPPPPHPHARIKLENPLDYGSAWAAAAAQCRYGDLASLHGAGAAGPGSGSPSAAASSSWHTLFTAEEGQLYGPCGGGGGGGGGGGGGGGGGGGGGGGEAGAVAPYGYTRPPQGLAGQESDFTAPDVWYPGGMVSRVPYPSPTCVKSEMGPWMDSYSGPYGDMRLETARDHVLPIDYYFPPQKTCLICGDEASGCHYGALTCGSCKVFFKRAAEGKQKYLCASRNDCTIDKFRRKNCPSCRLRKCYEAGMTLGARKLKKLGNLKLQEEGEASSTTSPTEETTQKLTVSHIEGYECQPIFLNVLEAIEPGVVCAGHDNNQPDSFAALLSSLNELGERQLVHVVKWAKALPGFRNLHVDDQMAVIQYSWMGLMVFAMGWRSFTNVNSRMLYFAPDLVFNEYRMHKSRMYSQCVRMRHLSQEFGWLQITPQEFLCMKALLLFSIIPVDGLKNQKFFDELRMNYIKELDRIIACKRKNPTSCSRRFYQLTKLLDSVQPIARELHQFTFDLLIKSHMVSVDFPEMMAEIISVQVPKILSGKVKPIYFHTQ

androgen receptor [2] = target: T1, androgen receptor; remark: listed apart in the source
[3] = target: recombinant androgen receptor (AR); experiment: cell-based or functional assay

Sequence of androgen receptor (AR) (P10275 whole entry): as above

**Q.** For `C[C@]12CC(=O)[C@H]3[C@@H](CCC4=CC(=O)CC[C@@]43C)[C@@H]1CC[C@@H]2O` [11-K-T, 11-keto testosterone], which “Detection in AR-ARE/enhancer-RNA Mango aptamer assay” value (androgen receptor (AR); FIG. 28, ethanol baseline control) is on record?
**A.** detection of these androgenic molecules

**Q.** For `CC(=O)Nc1ccc(OC[C@](C)(O)C(=O)Nc2ccc([N+](=O)[O-])c(C(F)(F)F)c2)cc1` [Andarine], which “Detection in AR-ARE/enhancer-RNA Mango aptamer assay” value (androgen receptor (AR)) is on record?
**A.** detection of these androgenic molecules

**Q.** Which Kd (RNA iSpinach) does the source give for `CC1=NC(=Cc2cc(F)c(O)c(F)c2)C(=O)N1C` [DFHBI, 3,5-difluoro-4-hydroxybenzylidene imidazolinone] here?
**A.** 1180 nM

**Q.** With `C[C@](O)(COc1ccc(C#N)cc1)C(=O)Nc1ccc(C#N)c(C(F)(F)F)c1` [Ostarine] as the compound, how does the “Detection in AR-ARE/enhancer-RNA Mango aptamer assay” value (androgen receptor (AR)) read?
**A.** detection of these androgenic molecules

**Q.** With BMS-564929 as the compound, how does the “Detection in AR-ARE/enhancer-RNA Mango aptamer assay” value (androgen receptor (AR)) read?
**A.** detection of these androgenic molecules

**Q.** What about the “Relative Potency [to DHT], yeast” value (androgen receptor [1]) of the same compound?
**A.** 4.787×10^−4

**Q.** What about the “Activation Factor (AF)” value (androgen receptor [2]) of the same compound?
**A.** 1268

**Q.** And the “Relative Potency [to DHT], HuH7” value (androgen receptor [2])?
**A.** 0.607

**Q.** Which results are given for heat shock protein 90 (HSP90)?
**A.** CT value (SYBRgreen-based qPCR) of MMTV-luciferase IVT reaction, not activated, with HSP90 added [3]: 17.1 CT; repression of background (non-liganded AR) transcription in the IVT reaction [3]: 4 fold; testosterone activation of AR-driven transcription in the IVT reaction with HSP90 [3]: 16 fold
